# Measurements: PMC8373237 (Antimicrobial Agents and Chemotherapy, 2021)
# Values joined by “and” are separate entries in the source; they are usually repeats but may differ in a detail not shown here. Equal values may be shown once. Read-outs that look alike come from different tables or passages of the source. Marks after values point to notes of the source that are not given here. Square brackets hold non-standard residues; d marks the D form. Peptide text beside a SMILES is read from it. Nphe = O=C(O)CNCc1ccccc1; NPrGly = CCCNCC(=O)O
# Experiments:
# [1] = system: Salmonella enterica Typhimurium SPI-1 T3SS (SipA, SipC secretion); format: cell-based
# [2] = system: Y. pseudotuberculosis; format: cell-based, Yersinia pseudotuberculosis; details: 2xYT, 9-120 µM, 12 h
# [3] = system: C. trachomatis serovar L2 in HeLa cells; test: Chlamydia infection of HeLa cells (primary and secondary infection); format: cell-based, Chlamydia trachomatis
# Procedure: Primary infections. HeLa cell monolayers were infected with C. trachomatis serovar L2 at a multiplicity of infection (MOI) of 1.0 in the presence of one of the following compounds at 9 μM: DMSO, 4EpDN, or 4EpDN 2Sar. Cells were incubated for 24 h in the presence of the above-listed compounds at 37°C and then fixed with 4% paraformaldehyde (PFA). Cells were stained for IncA (Chlamydia inclusion membrane marker), DNA (with DAPI), and MOMP (Chlamydia major outer membrane protein) simultaneously. This method of staining allows visualization of the inclusion independent of MOMP synthesis or transport. The percentage of cells infected (i.e., stained positively for the listed Chlamydia markers) in the presence of the compounds was quantified using confocal microscopy. Quantifications of inclusion take into account both DAPI staining and indirect immunofluoresence with an antibody to MOMP. Ten randomly selected fields of view were measured per experiment. The data represent three biological replicates.
# Secondary infections. HeLa cell monolayers were infected with C. trachomatis serovar L2 at an MOI of 1.0 in the presence of one of the following compounds at 9 μM: DMSO, 4EpDN, or 4EpDN 2Sar. Cells were incubated for 48 h in the presence of the above-listed compounds at 37°C. Infected cells were then lysed, and the lysate was applied to fresh HeLa monolayers to enumerate infectious particles. These secondary infections were fixed in 4% PFA at 24 hpi and were stained against MOMP and DNA. The infectious units per ml (IFU/ml) were calculated by averaging the number of infected cells in each of 10 randomly selected fields of view at ×40 magnification on a confocal microscope and multiplying this by the appropriate dilution and area factors. The data represent four biological replicates.
# [4] = system: P. aeruginosa PA103 T3SS (ExsE secretion); format: cell-based, Pseudomonas aeruginosa
# [5] = Kinetic solubility; format: physicochemical
# Procedure: […] Then, […] of 15 mM stock compound was added to make a solution of 120 μM final concentration with 0.8% DMSO. The solution was shaken at 37°C for ∼2 h. The solution was passed over a 0.7- μM glass fiber filter. Then, the solution was diluted 1:4 in acetonitrile to crash out any proteins. The solution was centrifuged at 500 × g for 10 min. Avoiding the pellet, 10 μl of supernatant was added to a fresh plate with 90 μl of acetonitrile. The final dilution is 40 times lower. Next, 10 μl of 40× dilution of solution was injected on the Orbi-trap. A 1 μM standard was used for the ratiometric comparison, and the assay was done in triplicate.
# [6] = system: Salmonella T3SS genes (hilA, hilD, invF, sipC, sipA, fliC); test: mRNA quantification by qPCR of T3SS genes; format: cell-based, Salmonella enterica Typhimurium; details: 9 µM, 2 h and 4 h
# Procedure: Samples were taken after 3 h of induction. Overnight Salmonella cultures were subcultured into fresh LB with 0.3 M NaCl at 37°C in the presence of 9 μM 4EpDN, 4EpDN 2Sar, or equivalent DMSO. Samples were taken after 2 h and 4 h of induction. Samples were stored in RNAprotect reagent (Qiagen) and processed within a week. Total RNA was isolated using an RNAeasy kit (Qiagen) according to the manufacturer’s instructions, followed by two rounds of Turbo DNase (Thermo Fisher scientific) treatment. A total of 2 μg of RNA was used to make cDNA, and quantitative PCRs (qPCRs) were run with SYBR green PCR master mix (Applied Biosystems). DNA helicase (dnaB) and 16S rRNA genes were used as a reference for P. aeruginosa and Salmonella samples, respectively. Two to three technical replicates were averaged for each sample. Results were analyzed using Bio-Rad CFX software.
# [7] = system: Y. pseudotuberculosis Ysc T3SS (YopE secretion); format: cell-based, Yersinia pseudotuberculosis
# [8] = system: Y. pseudotuberculosis twin arginine translocation (Tat) system; format: cell-based, Yersinia pseudotuberculosis; details: culture optical density, 4 and 6 h
# [9] = system: HeLa cells; test: Cytological profiling (CP); format: cell-based; details: concentration used in Chlamydia infection
# Procedure: Briefly, HeLa cells were cultured and seeded into 384-well plates at 2,500 cells/well. After 48 h, compounds were added using a Janus MDT robot (PerkinElmer). Two stain sets were used—stain set 1, Hoechst, EdUrhodamine, anti-phosphohistone H3, and GM130; stain set 2, Hoechst, fluorescein isothiocyanate (FITC)-alpha tubulin, rhodamine-phalloidin, and calnexin. For stain set 1, cells were incubated with 20 μM EdUrhodamine for 1 h prior to fixing in 4% formaldehyde solution in PBS for 20 min. Cells were then washed with PBS and permeabilized with 0.5% Triton X-100 in PBS for 10 min before blocking with 2% BSA in PBS solution for at least 1 h. Following this, cells were incubated with primary antibodies overnight at 4°C. The following day, excess primary antibody was washed off with PBS and Alexa-488, and Alexa-647 secondary antibodies and Hoechst solution were incubated for 1 h. Plates were washed with PBS and preserved with 0.1% sodium azide in PBS solution prior to imaging. For stain set 2, cells were fixed with a 4% formaldehyde solution in PBS for 20 min. Cells were then washed with PBS and permeabilized with 0.5% Triton X-100 in PBS for 10 min before blocking with 2% BSA in PBS solution for at least 1 h. Following this, cells were incubated with primary antibodies overnight at 4°C. […]
# [10] = system: Salmonella flagellar T3SS (FliC, FliD secretion); format: cell-based, Salmonella enterica Typhimurium; design: key to Fla fliC (Table 2): NE: No effect observed
# [11] = system: P. aeruginosa (PAO1); format: cell-based, Pseudomonas aeruginosa
# [12] = system: P. aeruginosa PA103 T3SS (ExoU secretion); format: cell-based, Pseudomonas aeruginosa
# [13] = system: Y. enterocolitica Ysa T3SS (YspF secretion); format: cell-based, Yersinia enterocolitica
# [14] = system: flagella (Fla), fliC; design: key: NE: No effect observed; details: ref [102]; cited from earlier work
# [15] = system: Salmonella enterica Typhimurium SPI-1 T3SS; details: culture-based secretion assay; ref [102]; read-out: IC50, SipC secretion; cited from earlier work
smiles,measurement,setting,value
"CCCN1CC(=O)N(Cc2ccccc2)CC(=O)N[C@@H](CC(C)C)C(=O)N[C@@H]([C@@H](C)CC)C(=O)N[C@H](CC(C)C)C(=O)N[C@H](Cc2ccccc2)C1=O [4EpDN, 4-EpD1,2N] (cyclo(I[dL][dF][NPrGly][Nphe]L))",IC50,"[1]; read-out: IC50, SipAC secretion (SPI-1 T3SS)",1000 nM
same,IC50,"[1]; read-out: IC50, SipC secretion",~1000 nM and ~800 nM
same,bacterial viability in broth culture,[2],did not affect bacterial viability
same,inhibition of formation of infectious progeny,"[3]; 9 μM, EBs collected at 48 hpi, fresh monolayers 24 h",~98%
same,decrease of primary inclusion formation,"[3]; 9 μM, HeLa cells, 24 hpi",~50%
same,"lowest known inhibitory concentration (∼), cell-based infection assay, Chlamydia","[3]; Table 2, Chlamydiales",∼9^c μM
same,inhibition of ExsE secretion,[4]; 9 µM,did not significantly inhibit
same,inhibition of ExsE secretion,[4]; 60 µM,~40%
same,solubility kinetic,[5],13 µM
same,solubility,[5]; DMEM (no antibiotics),12 µM
same,solubility,[5]; M9,10 µM
same,"expression of T3SS genes (qPCR), in words",[6],nor did it impact T3SS gene transcription
same,"lowest known inhibitory concentration (∼), YopE secretion","[7]; Table 2, Ysc, culture-based secretion assay",∼7.5 YopE^b μM
same,"T3SS effector secretion inhibited, fold",[7]; same concentration as YscF staining (60 μM),4 fold
same,"growth of SufI-β-lactamase Tat reporter bacteria in penicillin G / Tat inhibition, in words",[8],does not inhibit the Tat secretion system
same,"changes to actin cytoskeleton, Golgi network, endoplasmic reticulum, microtubule network",[9],did not show any gross changes
same,Fla fliC (Table 2),[10],NE^d
same,concentration inhibiting FliC secretion,[10],≥ 60 µM
same,bacterial viability in broth culture,[11],did not affect bacterial viability
same,fold more potent than its parental compound,[12],2 fold
same,inhibition of ExoU secretion,[12]; 9 µM,~75%
same,inhibition of ExoU secretion,[12]; 60 µM,~75%
same,IC50,"[12]; read-out: IC50, inhibition of secretion of T3SS effector ExoU",3900 nM
same,IC50,[13],16100 nM
same,"secretion of YspF, in words",[13],inhibited secretion of YspF in a dose-dependent manner
CCCCCCCC(=O)c1c(O)cc(O)cc1CC(=O)OCC [Cytosporone B],Fla fliC,[14],NE^d
same,IC50,[15],6250 nM
